Measurements published in patent US9527869B2, “Indolizine derivatives as phoshoinositide 3-kinases inhibitors” (CHIESI FARMACEUTICI S.P.A., priority 2014, dated 2016).

Assays:
Assay type in all cases: biochemical
[1] = target: T1, PI3Kα (Homo sapiens, UniProt P42336); experiment: In vitro determination of the PI3K enzyme inhibitory activity in the cell free assay (ADP-Glo Kinase Assay), PI3Kα; settings: ATP 50 μM, read-out: PI3K alpha inhibition
T1 construct: purchased Millipore Ltd (Billerica, Mass.)
In short: (§1)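 IC50 values came from four-parameter logistic fitting of ADP-Glo luminescence after 60 min kinase reactions at room temperature. ATP (final) was set per isoform: α 50 μM, β 100 μM, γ 30 μM, δ 80 μM. Substrates were phosphatidylinositol and phosphatidylserine (50 μM in 2× Tris pH 7.5 buffer), with human recombinant enzymes.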

[2] = target: T2, PI3Kγ (Homo sapiens, UniProt P48736); experiment: In vitro determination of the PI3K enzyme inhibitory activity in the cell free assay (ADP-Glo Kinase Assay), PI3Kγ; settings: ATP 30 μM, read-out: PI3K gamma inhibition
T2 construct: purchased Millipore Ltd (Billerica, Mass.)
In short: as §1

[3] = target: T3, PI3Kδ (Homo sapiens, UniProt O00329); experiment: In vitro determination of the PI3K enzyme inhibitory activity in the cell free assay (ADP-Glo Kinase Assay), PI3Kδ; settings: ATP 80 μM, read-out: PI3K delta inhibition
T3 construct: purchased Millipore Ltd (Billerica, Mass.)
In short: as §1

[4] = target: T4, PI3Kβ (Homo sapiens, UniProt P42338); experiment: In vitro determination of the PI3K enzyme inhibitory activity in the cell free assay (ADP-Glo Kinase Assay), PI3Kβ; settings: ATP 100 μM, read-out: PI3K beta inhibition
T4 construct: purchased Millipore Ltd (Billerica, Mass.)
In short: as §1

T1 sequence (P42336 whole entry): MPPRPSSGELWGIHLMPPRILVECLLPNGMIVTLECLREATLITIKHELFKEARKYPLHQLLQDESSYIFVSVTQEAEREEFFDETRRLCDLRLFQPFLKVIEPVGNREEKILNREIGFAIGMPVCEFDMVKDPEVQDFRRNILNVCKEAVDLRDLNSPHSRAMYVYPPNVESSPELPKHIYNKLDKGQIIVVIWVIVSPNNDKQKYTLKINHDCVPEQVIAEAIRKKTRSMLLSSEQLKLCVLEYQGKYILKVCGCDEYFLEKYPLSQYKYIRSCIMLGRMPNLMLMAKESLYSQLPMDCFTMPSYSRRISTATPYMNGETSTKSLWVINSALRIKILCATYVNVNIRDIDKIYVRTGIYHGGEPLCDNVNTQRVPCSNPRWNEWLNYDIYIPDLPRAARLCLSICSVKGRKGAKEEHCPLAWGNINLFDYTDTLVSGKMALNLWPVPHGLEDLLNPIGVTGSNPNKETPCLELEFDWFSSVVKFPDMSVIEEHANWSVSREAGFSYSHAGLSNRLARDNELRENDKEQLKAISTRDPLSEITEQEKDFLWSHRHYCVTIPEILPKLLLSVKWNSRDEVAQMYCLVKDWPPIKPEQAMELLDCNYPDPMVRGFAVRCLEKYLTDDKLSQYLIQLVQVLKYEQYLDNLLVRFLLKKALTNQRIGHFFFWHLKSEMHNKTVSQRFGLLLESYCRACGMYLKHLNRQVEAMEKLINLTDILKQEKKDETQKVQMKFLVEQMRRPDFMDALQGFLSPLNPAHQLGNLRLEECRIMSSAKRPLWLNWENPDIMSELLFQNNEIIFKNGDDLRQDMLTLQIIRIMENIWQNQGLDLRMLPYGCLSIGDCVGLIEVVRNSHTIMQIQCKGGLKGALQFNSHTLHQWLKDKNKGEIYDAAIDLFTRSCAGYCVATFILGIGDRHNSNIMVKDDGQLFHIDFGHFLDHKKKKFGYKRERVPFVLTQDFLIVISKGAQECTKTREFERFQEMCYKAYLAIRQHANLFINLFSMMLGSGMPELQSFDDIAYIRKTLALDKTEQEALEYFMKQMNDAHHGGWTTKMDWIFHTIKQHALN
T1 sequence (P27986 whole entry partner): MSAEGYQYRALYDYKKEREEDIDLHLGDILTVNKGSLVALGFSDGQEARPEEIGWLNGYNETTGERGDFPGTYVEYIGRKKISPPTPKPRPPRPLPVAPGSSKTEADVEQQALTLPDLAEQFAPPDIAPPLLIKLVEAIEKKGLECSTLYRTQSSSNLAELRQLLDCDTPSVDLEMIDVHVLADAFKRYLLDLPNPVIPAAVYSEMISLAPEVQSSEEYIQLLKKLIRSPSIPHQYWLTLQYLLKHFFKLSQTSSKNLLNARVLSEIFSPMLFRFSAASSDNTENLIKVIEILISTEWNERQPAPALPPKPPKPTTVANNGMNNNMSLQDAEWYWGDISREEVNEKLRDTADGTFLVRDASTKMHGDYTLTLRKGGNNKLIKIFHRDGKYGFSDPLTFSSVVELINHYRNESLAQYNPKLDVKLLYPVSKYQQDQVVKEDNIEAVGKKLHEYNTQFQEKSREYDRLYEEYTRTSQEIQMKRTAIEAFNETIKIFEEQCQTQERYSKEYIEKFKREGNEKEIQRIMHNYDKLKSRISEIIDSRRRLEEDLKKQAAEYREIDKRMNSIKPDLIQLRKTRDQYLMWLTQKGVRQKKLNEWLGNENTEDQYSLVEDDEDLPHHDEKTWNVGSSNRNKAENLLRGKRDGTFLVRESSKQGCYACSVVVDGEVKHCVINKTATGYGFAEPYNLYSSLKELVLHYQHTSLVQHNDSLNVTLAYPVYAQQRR
T3 sequence (O00329 whole entry): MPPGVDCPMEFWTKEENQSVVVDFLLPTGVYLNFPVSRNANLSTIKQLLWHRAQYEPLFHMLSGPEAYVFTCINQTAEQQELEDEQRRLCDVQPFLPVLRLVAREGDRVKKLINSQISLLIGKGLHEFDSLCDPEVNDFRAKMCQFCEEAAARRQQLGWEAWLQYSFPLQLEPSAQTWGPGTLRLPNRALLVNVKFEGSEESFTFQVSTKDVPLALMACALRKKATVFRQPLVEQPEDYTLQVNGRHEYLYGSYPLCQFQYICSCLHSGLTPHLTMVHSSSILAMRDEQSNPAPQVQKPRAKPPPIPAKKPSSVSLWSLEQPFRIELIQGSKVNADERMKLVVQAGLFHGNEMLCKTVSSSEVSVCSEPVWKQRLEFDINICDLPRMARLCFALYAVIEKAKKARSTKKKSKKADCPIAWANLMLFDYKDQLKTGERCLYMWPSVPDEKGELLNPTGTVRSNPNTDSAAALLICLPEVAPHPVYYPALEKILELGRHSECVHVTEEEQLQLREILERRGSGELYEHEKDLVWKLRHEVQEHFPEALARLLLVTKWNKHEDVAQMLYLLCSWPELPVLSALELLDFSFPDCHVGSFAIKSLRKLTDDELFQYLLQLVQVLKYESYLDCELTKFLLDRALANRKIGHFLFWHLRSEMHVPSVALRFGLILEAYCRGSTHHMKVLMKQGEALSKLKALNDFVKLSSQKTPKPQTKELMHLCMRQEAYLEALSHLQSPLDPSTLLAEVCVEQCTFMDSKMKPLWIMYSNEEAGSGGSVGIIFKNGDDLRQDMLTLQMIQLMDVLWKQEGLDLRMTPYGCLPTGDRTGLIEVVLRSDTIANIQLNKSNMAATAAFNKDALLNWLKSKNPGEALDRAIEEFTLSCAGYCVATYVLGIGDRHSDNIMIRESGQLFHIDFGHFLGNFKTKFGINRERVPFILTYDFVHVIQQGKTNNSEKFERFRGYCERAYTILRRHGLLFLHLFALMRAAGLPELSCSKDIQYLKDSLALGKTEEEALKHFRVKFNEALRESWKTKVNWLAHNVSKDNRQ
T3 sequence (P27986 whole entry partner): as the sequence (P27986 whole entry partner) above
T2 sequence (P48736 whole entry): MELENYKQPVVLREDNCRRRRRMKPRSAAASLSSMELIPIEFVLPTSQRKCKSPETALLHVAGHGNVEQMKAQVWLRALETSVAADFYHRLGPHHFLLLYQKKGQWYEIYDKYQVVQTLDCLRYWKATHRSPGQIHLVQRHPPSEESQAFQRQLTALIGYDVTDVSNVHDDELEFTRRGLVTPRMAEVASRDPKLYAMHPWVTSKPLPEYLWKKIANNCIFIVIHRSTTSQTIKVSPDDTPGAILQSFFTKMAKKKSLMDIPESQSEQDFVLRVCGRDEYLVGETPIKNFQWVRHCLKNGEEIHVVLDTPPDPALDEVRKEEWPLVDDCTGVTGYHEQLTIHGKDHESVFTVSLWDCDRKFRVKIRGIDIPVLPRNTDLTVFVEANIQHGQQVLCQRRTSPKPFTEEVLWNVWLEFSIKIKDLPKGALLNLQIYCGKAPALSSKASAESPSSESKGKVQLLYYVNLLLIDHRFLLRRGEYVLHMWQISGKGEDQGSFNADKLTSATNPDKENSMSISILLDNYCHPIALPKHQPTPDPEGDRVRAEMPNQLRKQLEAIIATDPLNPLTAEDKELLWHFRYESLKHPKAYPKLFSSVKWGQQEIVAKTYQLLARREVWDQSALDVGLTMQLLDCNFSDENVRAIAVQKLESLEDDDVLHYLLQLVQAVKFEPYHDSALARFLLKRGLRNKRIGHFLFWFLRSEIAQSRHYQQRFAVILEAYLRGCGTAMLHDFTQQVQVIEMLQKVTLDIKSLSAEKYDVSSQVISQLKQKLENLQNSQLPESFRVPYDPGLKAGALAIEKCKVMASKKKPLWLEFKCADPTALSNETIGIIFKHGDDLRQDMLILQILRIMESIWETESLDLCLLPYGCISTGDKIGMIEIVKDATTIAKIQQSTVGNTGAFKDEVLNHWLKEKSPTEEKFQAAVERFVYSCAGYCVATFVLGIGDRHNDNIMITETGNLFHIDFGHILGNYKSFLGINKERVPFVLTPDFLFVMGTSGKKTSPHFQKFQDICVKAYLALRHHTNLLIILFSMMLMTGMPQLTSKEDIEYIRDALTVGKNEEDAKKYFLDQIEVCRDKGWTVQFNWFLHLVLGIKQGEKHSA
T4 sequence (P42338 whole entry): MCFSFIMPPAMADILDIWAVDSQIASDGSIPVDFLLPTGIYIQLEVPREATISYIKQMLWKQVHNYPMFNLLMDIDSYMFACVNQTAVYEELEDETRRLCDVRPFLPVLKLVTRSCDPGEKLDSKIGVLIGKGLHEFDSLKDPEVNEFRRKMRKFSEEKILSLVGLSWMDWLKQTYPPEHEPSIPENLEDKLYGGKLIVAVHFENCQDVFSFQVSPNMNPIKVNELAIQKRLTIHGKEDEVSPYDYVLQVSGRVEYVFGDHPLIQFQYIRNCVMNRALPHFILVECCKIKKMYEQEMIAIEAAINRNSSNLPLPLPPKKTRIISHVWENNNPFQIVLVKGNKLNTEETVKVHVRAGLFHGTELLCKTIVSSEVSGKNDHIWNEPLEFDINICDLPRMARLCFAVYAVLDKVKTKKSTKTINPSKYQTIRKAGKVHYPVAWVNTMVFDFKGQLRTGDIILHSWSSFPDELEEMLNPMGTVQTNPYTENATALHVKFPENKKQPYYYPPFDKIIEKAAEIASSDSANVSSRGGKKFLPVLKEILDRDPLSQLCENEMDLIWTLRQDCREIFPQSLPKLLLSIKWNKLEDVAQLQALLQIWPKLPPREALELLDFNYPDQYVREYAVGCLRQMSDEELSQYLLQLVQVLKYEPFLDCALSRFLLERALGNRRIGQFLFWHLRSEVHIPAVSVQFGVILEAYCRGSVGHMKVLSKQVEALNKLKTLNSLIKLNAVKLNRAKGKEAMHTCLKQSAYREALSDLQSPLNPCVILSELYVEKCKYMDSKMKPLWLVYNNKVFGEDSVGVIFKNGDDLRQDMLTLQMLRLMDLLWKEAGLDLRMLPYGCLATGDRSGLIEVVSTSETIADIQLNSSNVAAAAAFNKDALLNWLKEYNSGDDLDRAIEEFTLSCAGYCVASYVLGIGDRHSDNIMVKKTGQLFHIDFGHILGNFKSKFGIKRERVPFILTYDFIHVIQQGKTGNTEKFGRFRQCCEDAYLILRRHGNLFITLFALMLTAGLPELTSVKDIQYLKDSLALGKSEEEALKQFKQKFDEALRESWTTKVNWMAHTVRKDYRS
T4 sequence (P27986 whole entry partner): as the sequence (P27986 whole entry partner) above

SMILES | IC50 [1] [nM] | IC50 [2] [nM] | IC50 [3] [nM] | IC50 [4] [nM]
CC(c1cc2ccccn2c1-c1ccn(CCN2CCN(C)CC2)n1)n1nc(-c2cc(O)cc(F)c2)c2c(N)ncnc21 (centres unmarked) [Example 148, 3-{4-amino-1-[1-(3-{1-[2-(4-methylpiperazin-1-yl)ethyl]-1H-pyrazol-3-yl}indolizin-2-yl)-ethyl]-1H-pyrazolo[3,4-d]pyrimidin-3-yl}-5-fluorophenol] | 10 to 1000 | 10 to 1000 | < 10 | 10 to 1000
CC(c1cc2ccccn2c1-c1ccn(CCN(CCO)CCO)n1)n1nc(-c2cc(O)cc(F)c2)c2c(N)ncnc21 (centres unmarked) [Example 149, 3-(4-amino-1-{1-[3-(1-{2-[bis(2-hydroxyethyl)amino]ethyl}-1H-pyrazol-3-yl)indolizin-2-yl]ethyl}-1H-pyrazolo[3,4-d]pyrimidin-3-yl)-5-fluorophenol] | > 1000 | 10 to 1000 | < 10 | 10 to 1000
CC(c1cc2ccccn2c1-c1ccn(CCN2CCOCC2)n1)n1nc(-c2cc(O)cc(F)c2)c2c(N)ncnc21 (centres unmarked) [Example 150, 3-{4-amino-1-[1-(3-{1-[2-(morpholin-4-yl)ethyl]-1H-pyrazol-3-yl}indolizin-2-yl)ethyl]-1H-pyrazolo-[3,4-d]pyrimidin-3-yl}-5-fluorophenol] | > 1000 | 10 to 1000 | < 10 | 10 to 1000

Results, then the molecule that gave them:

IC50 [1] [nM] | IC50 [2] [nM] | IC50 [3] [nM] | IC50 [4] [nM] | SMILES
10 to 1000 | 10 to 1000 | 10 to 1000 | 10 to 1000 | CC(c1cc2ccccn2c1CN1C[C@H]2CN(C)C[C@H]2C1)n1nc(-c2cc(O)cc(F)c2)c2c(N)ncnc21 (stereo partly drawn) [Example 145, 3-{1-[1-(3-{[(3aR,6aS)-5-methyl-octahydropyrrolo[3,4-c]pyrrol-2-yl]methyl}indolizin-2-yl)ethyl]-4-amino-1H-pyrazolo[3,4-d]pyrimidin-3-yl}-5-fluorophenol]
10 to 1000 | > 1000 | < 10 | 10 to 1000 | CC(c1cc2ccccn2c1-c1ccn(CCN(C)C)n1)n1nc(-c2cc(O)cc(F)c2)c2c(N)ncnc21 (centres unmarked) [Example 147, 3-{4-amino-1-[1-(3-{1-[2-(dimethylamino)-ethyl]-1H-pyrazol-3-yl}indolizin-2-yl)-ethyl]-1H-pyrazolo[3,4-d]pyrimidin-3-yl}-5-fluorophenol]
